# Data published in patent publication US20040223932A1, “Adhesive treatment for acne” (Closure Medical Corporation, priority 2003, published 2004).
# Test: Observation of the monomer composition after preparation (clarity, solubility, premature polymerization)
# Assay type: physicochemical
# Details: 2 wt % in 2-octyl cyanoacrylate monomer
# From the text: The characteristics of the composition are observed at about one minute after preparation and later at least twenty-four hours after preparation.
smiles,measurement,setting,value
O=C(O)c1ccccc1O [salicylic acid],solubility in the monomer,inferred from clear solution,soluble
same,premature polymerization of the monomer,up to at least twenty-four hours,does not cause premature polymerization
